Assay results as given in US20060069132A1, “Azolecarboxamide herbicides” (priority 2004, published 2006).

How the values were obtained:
corn = experiment: Test B pre-/postemergence herbicide test; format: in vivo, Zea mays; settings: for Corn plant response rating: postemergence
In short: (§1)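 Flooded paddy rice and barnyardgrass were treated at the 2-leaf stage; upland plantings received compound either on sown seed or on 1- to 4-leaf seedlings. All were kept 13–15 days in a greenhouse and scored visually, 0–100, relative to untreated plants.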

large crabgrass = experiment: Test B pre-/postemergence herbicide test; format: in vivo, Digitaria sanguinalis; settings: for Crabgrass, Large plant response rating: postemergence
In short: as §1

morningglory = experiment: Test B pre-/postemergence herbicide test; format: in vivo, Ipomoea coccinea; settings: for Morningglory plant response rating: postemergence
In short: (§2)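 Visual rating, 0 (no effect) to 100 (complete control), versus untreated controls after 13–15 d in greenhouse. Pre- and postemergence applications (postemergence plants 2–18 cm, 1–4 leaves); flooded paddy arm at 2-leaf stage. Compounds in non-phytotoxic solvent plus surfactant.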

[1] = tested on: smallflower umbrella sedge; experiment: Test C flooded paddy test; format: in vivo, Cyperus difformis
Surinam grass = experiment: Test B pre-/postemergence herbicide test; format: in vivo, Urochloa decumbens; settings: for Surinam Grass plant response rating: postemergence
In short: as §1

rice [2] = experiment: Test C flooded paddy test; format: in vivo, Oryza sativa
In short: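 Postemergence sprays applied to plants 2 to 18 cm tall (1- to 4-leaf stage); paddy species grown to 2-leaf stage under flooding. After 12 to 14 days in greenhouse, visual rating versus untreated controls on 0–100 scale (0 no effect, 100 complete control).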

rice [3] = experiment: Test B pre-/postemergence herbicide test; format: in vivo, Oryza sativa; settings: 0 = no effect, 100 = complete control, preemergence
In short: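 Evaluation is visual, comparing treated with control plants on a scale where 0 means no effect and 100 means full control. Treatments were preemergence, or postemergence on seedlings 2–18 cm tall, and held 13–15 days in the greenhouse.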

[4] = tested on: small flower umbrella sedge; experiment: Test B flooded paddy test; format: in vivo, Cyperus difformis; settings: 1000 g ai/ha, scale 0 to 100 (0 no effect, 100 complete control)
In short: (§3)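 Visual ratings, 0 (no effect) to 100 (complete control), made versus controls after 13–15 d greenhouse. Paddy plants treated at 2-leaf stage; postemergence plants at 1- to 4-leaf stage, 2–18 cm tall.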

barnyardgrass [5] = experiment: Test C flooded paddy test; format: in vivo, Echinochloa crus-galli
In short: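 Greenhouse test with a 12–14 day hold after application and visual comparison with controls. Emerged plants were 1- to 4-leaf stage (2–18 cm) when sprayed postemergence, and the paddy barnyardgrass was at 2 leaves under flooded conditions. 100 = complete control.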

velvetleaf = experiment: Test B pre-/postemergence herbicide test; format: in vivo, Abutilon theophrasti; settings: for Velvetleaf plant response rating: postemergence
In short: as §1

barnyardgrass [6] = experiment: Test B flooded paddy test; format: in vivo, Echinochloa crus-galli; settings: 1000 g ai/ha, scale 0 to 100 (0 no effect, 100 complete control)
In short: as §3

ducksalad [7] = experiment: Test B flooded paddy test; format: in vivo, Heteranthera limosa; settings: 1000 g ai/ha, scale 0 to 100 (0 no effect, 100 complete control)
In short: as §3

barnyardgrass [8] = experiment: Test B pre-/postemergence herbicide test; format: in vivo, Echinochloa crus-galli; settings: for Barnyardgrass plant response rating: postemergence, scale 0 (no effect) to 100 (complete control)
In short: as §2

giant foxtail = experiment: Test B pre-/postemergence herbicide test; format: in vivo, Setaria faberi; settings: for Foxtail, Giant plant response rating: postemergence
In short: as §1

lambsquarters = experiment: Test B pre-/postemergence herbicide test; format: in vivo, Chenopodium album; settings: for Lambsquarters plant response rating: postemergence
In short: as §1

wild oat = experiment: Test B postemergence herbicide test; format: in vivo, Avena fatua; settings: postemergence
In short: (§4)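 Formulated test chemicals went onto postemergence plants measuring 2 to 18 cm, at one to four leaves. For the paddy assay, species had reached two leaves. Scoring took place 13–15 days later by eye, relative to untreated plants, using 0 for no effect up to 100 for full control.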

pigweed = experiment: Test B pre-/postemergence herbicide test; format: in vivo, Amaranthus retroflexus; settings: for Pigweed plant response rating: postemergence
In short: as §1

rice [9] = experiment: Test B flooded paddy test; format: in vivo, Oryza sativa; settings: 1000 g ai/ha, scale 0 to 100 (0 no effect, 100 complete control)
In short: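 After treating 2-leaf paddy plants or 2–18 cm postemergence plants (1 to 4 leaves) with formulated chemical, researchers kept them in a greenhouse for 13–15 days. Effects were judged visually versus controls: 0 indicates none, 100 total control.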

cocklebur = experiment: Test B pre-/postemergence herbicide test; format: in vivo, Xanthium strumarium; settings: postemergence, visual rating, scale 0 (no effect) to 100 (complete control)
In short: as §2

blackgrass = experiment: Test B postemergence herbicide test; format: in vivo, Alopecurus myosuroides; settings: postemergence, visual rating, scale 0 (no effect) to 100 (complete control)
In short: as §3

wheat = experiment: Test B postemergence herbicide test; format: in vivo, Triticum aestivum; set-up: key to Wheat plant response rating: 0 = no effect, 100 = complete control; settings: postemergence
In short: as §4

ducksalad [10] = experiment: Test C flooded paddy test; format: in vivo, Heteranthera limosa
[11] = 125 g ai/ha, 0 = no effect, 100 = complete control, preemergence
[12] = 500 g ai/ha, visual rating, 0 = no effect, 100 = complete control, preemergence
[13] = 125 g ai/ha, visual rating, scale 0 (no effect) to 100 (complete control)
[14] = 500 g ai/ha, scale 0 to 100, 0 is no effect, 100 is complete control
[15] = 125 g ai/ha, scale 0 to 100 (0 no effect, 100 complete control)
[16] = 250 g ai/ha, scale of 0 to 100, 0 is no effect, 100 is complete control
[17] = 500 g ai/ha, visual rating after 12 to 14 days, scale 0 to 100 (0 no effect, 100 complete control)

SMILES: CCN(C)C(=O)c1cncc(NC(=O)c2cc(C(C)(C)C)nn2CC)c1 [Compound 263]
- Corn plant response rating (0 to 100 scale) (corn; [11]): 0
- Plant response rating, Corn (corn; [12]): 0
- Corn plant response rating (corn; [13]): 0
- Corn plant response rating (corn; [14]): 10
- Crabgrass, Large plant response rating (0 to 100 scale) (large crabgrass; [11]): 10
- Plant response rating, Crabgrass, Large (large crabgrass; [12]): 60
- Crabgrass, Large plant response rating (large crabgrass; [13]): 10
- Crabgrass, Large plant response rating (large crabgrass; [14]): 20
- Morningglory plant response rating (0 to 100 scale) (morningglory; [11]): 0
- Plant response rating, Morningglory (morningglory; [12]): 0
- Morningglory plant response rating (morningglory; [13]): 0
- Morningglory plant response rating (morningglory; [14]): 20
- Sedge, Umbrella plant response rating ([1]; 62 g ai/ha, scale 0 to 100): 0
- Sedge, Umbrella plant response rating [1, 15]: 0
- Sedge, Umbrella plant response rating [1, 16]: 30
- Plant response rating, Sedge, Umbrella [1, 17]: 50
- Surinam Grass plant response rating (0 to 100 scale) (Surinam grass; [11]): 10
- Plant response rating, Surinam Grass (Surinam grass; [12]): 30
- Surinam Grass plant response rating (Surinam grass; [13]): 10
- Surinam Grass plant response rating (Surinam grass; [14]): 10
- Rice plant response rating (rice [2]; 62 g ai/ha, scale 0 to 100): 0
- Rice plant response rating (rice [2]; [15]): 0
- Rice plant response rating (rice [2]; [16]): 0
- Plant response rating, Rice (rice [2]; [17]): 25
- Rice plant response rating (0 to 100 scale) (rice [3]; 125 g ai/ha): 0
- Plant response rating, Rice (rice [3]; 500 g ai/ha, visual rating): 10
- Sedge, Umbrella plant response rating [4]: 80
- Barnyardgrass plant response rating (barnyardgrass [5]; 62 g ai/ha, scale 0 to 100 (0 no effect, 100 complete control)): 0
- Barnyardgrass plant response rating (barnyardgrass [5]; [15]): 0
- Barnyardgrass plant response rating (barnyardgrass [5]; [16]): 0
- Plant response rating, Barnyardgrass (barnyardgrass [5]; [17]): 0
- Velvetleaf plant response rating (0 to 100 scale) (velvetleaf; [11]): 10
- Plant response rating, Velvetleaf (velvetleaf; [12]): 90
- Velvetleaf plant response rating (velvetleaf; [13]): 20
- Velvetleaf plant response rating (velvetleaf; [14]): 20
- Barnyardgrass plant response rating (barnyardgrass [6]): 60
- Ducksalad plant response rating (ducksalad [7]): 90
- Barnyardgrass plant response rating (0 to 100 scale) (barnyardgrass [8]; [11]): 10
- Plant response rating, Barnyardgrass (barnyardgrass [8]; [12]): 40
- Barnyardgrass plant response rating (barnyardgrass [8]; 125 g ai/ha, visual rating): 0
- Barnyardgrass plant response rating (barnyardgrass [8]; 500 g ai/ha, visual rating): 10
- Foxtail, Giant plant response rating (0 to 100 scale) (giant foxtail; [11]): 0
- Plant response rating, Foxtail, Giant (giant foxtail; [12]): 20
- Foxtail, Giant plant response rating (giant foxtail; [13]): 0
- Foxtail, Giant plant response rating (giant foxtail; [14]): 20
- Lambsquarters plant response rating (0 to 100 scale) (lambsquarters; [11]): 70
- Plant response rating, Lambsquarters (lambsquarters; [12]): 100
- Lambsquarters plant response rating (lambsquarters; [13]): 70
- Lambsquarters plant response rating (lambsquarters; [14]): 80
- Oat, Wild plant response rating (wild oat; [13]): 10
- Oat, Wild plant response rating (wild oat; [14]): 20
- Pigweed plant response rating (0 to 100 scale) (pigweed; [11]): 80
- Plant response rating, Pigweed (pigweed; [12]): 100
- Pigweed plant response rating (pigweed; [13]): 60
- Pigweed plant response rating (pigweed; [14]): 90
- Rice plant response rating (rice [9]): 70
- Cocklebur plant response rating (cocklebur; 125 g ai/ha): 0
- Cocklebur plant response rating (cocklebur; 500 g ai/ha): 10
- Blackgrass plant response rating (blackgrass; 125 g ai/ha): 10
- Blackgrass plant response rating (blackgrass; 500 g ai/ha): 20
- Wheat plant response rating (wheat; [13]): 10
- Wheat plant response rating (wheat; [14]): 20
- Ducksalad plant response rating (ducksalad [10]; 62 g ai/ha, scale 0 to 100): 0
- Ducksalad plant response rating (ducksalad [10]; [15]): 0
- Ducksalad plant response rating (ducksalad [10]; [16]): 75
- Plant response rating, Ducksalad (ducksalad [10]; [17]): 90
